Counter-ions that a name gives are not always drawn.
Key:
[1] = test system: adults with CCR5 tropic HIV-1; assay: Study 202 post-hoc APRI and FIB-4 fibrosis index scores; format: in vivo, human
Description: APRI and FIB-4 scores were calculated. Change in score category from baseline (BL) to Weeks 24 and 48 was assessed in patients with non-missing data. Correlations between changes from BL in APRI and FIB-4 scores, and MCP-1 (CCR2 ligand) and sCD14 (inflammatory biomarker) levels were evaluated.

[2] = test system: HIV-1 infected adult subjects; assay: Study 202 biomarkers of inflammation; format: in vivo, human
Description: As an exploratory analysis, levels of inflammation biomarkers MCP-1, sCD14, high sensitivity C-reactive protein [hs-CRP], interleukin-6 [IL-6], D-dimer, and fibrinogen) were measured. Baseline values and changes from baseline at Week 24 and Week 48 of MCP-1, sCD14, hs-CRP, IL-6, D-dimer, and fibrinogen are summarized in Table 22.
The sCD14 samples were originally analyzed in 2 separate batches: Batch 1 included samples leading up to the Week 24 primary analysis and Batch 2 included Week 32 and Week 48 (end of study) samples. A repeat analysis of archived samples all analyzed in one batch was conducted for consistency in analysis across time points. To control for the effects of covariates, a linear mixed-model repeated-measures analysis was conducted on the changes from baseline in sCD14 (analysis dated September 2013).

[3] = Phase 1 CVC and pioglitazone co-administration PK and safety study; format: in vivo, healthy subjects; settings: CVC 150 mg QD and PGZ 45 mg QD
Description: Plasma samples were collected prior to each dose and over 24 hours at the end of each treatment period. Cmax, Cmin, tmax, and AUC0-tau were determined using non-compartmental methods. Geometric means, GMRs and CIs were calculated.

[4] = Solubility of cenicriviroc mesylate; format: physicochemical
Excerpt: In one embodiment, the acid addition salt of cenicriviroc is cenicriviroc mesylate, e.g., (S)-8-[4-(2-Butoxyethoxy)phenyl]-1-isobutyl-N-(4-{[(1-propyl-1H-imidazol-5-yl)methyl]sulfinyl}phenyl)-1,2,3,4-tetrahydro-1-benzazocine-5-carboxamide monomethanesulfonoate. In one embodiment, the cenicriviroc mesylate is a crystalline material, such as a pale greenish-yellow crystalline powder.

For `O=C1Nc2ccc(Cl)cc2[C@@](C#CC2CC2)(C(F)(F)F)O1` [EFV, efavirenz, reference compound], the “subjects with APRI 0.5-1.5” value ([1]; Baseline) was 4%, the “subjects with APRI <0.5” value ([1]; Baseline) was 96% and the “subjects with FIB-4 <1.45” value ([1]; Baseline) was 100%. For the same molecule, the “subjects with APRI <0.5” value ([1]; Week 24) was 100%, the “subjects with APRI decreased 1 category from baseline” value ([1]; Week 24) was 5% and the “subjects with FIB-4 <1.45” value ([1]; Week 24) was 100%. For the same molecule, the “subjects with APRI <0.5” value ([1]; Week 48) was 100%, the “subjects with APRI decreased 1 category from baseline” value ([1]; Week 48) was 6% and the “subjects with FIB-4 1.45-3.25” value ([1]; Week 48) was 6%. For the same molecule, the “subjects with FIB-4 <1.45” value ([1]; Week 48) was 94%, the “plasma MCP-1 over time” value ([2]; CVC 100 mg and 200 mg, EFV, up to Week 48) was “remained at baseline values” and the “D-dimer Changes from baseline at Week 24, Mean” value ([2]; EFV 600 mg) was -53 ng/mL. The “D-dimer Changes from baseline at Week 24, Median” value ([2]; EFV 600 mg) was -26 ng/mL, the “D-dimer Changes from baseline at Week 48, Mean” value ([2]; EFV 600 mg) was -34 ng/mL and the “D-dimer Changes from baseline at Week 48, Median” value ([2]; EFV 600 mg) was 0.0 ng/mL. For the same molecule, the “Fibrinogen Changes from baseline at Week 24, Mean” value ([2]; EFV 600 mg) was -28 mg/dL, the “Fibrinogen Changes from baseline at Week 24, Median” value ([2]; EFV 600 mg) was -31 mg/dL and the “Fibrinogen Changes from baseline at Week 48, Mean” value ([2]; EFV 600 mg) was -30 mg/dL. The “Fibrinogen Changes from baseline at Week 48, Median” value ([2]; EFV 600 mg) was -22 mg/dL, the “IL-6 Changes from baseline at Week 24, Mean” value ([2]; EFV 600 mg) was -8.72 pg/mL and the “IL-6 Changes from baseline at Week 24, Median” value ([2]; EFV 600 mg) was 0.00 pg/mL. For the same molecule, the “IL-6 Changes from baseline at Week 48, Mean” value ([2]; EFV 600 mg) was -13.11 pg/mL, the “IL-6 Changes from baseline at Week 48, Median” value ([2]; EFV 600 mg) was 0.00 pg/mL and the “MCP-1 Changes from baseline at Week 24, Mean” value ([2]; EFV 600 mg) was -44 pg/mL. For the same molecule, the “MCP-1 Changes from baseline at Week 24, Median” value ([2]; EFV 600 mg) was -17 pg/mL, the “MCP-1 Changes from baseline at Week 48, Mean” value ([2]; EFV 600 mg) was 4.2 pg/mL and the “MCP-1 Changes from baseline at Week 48, Median” value ([2]; EFV 600 mg) was 33.6 pg/mL. For the same molecule, the “hs-CRP Changes from baseline at Week 24, Mean” value ([2]; EFV 600 mg) was -0.46 mg/dL, the “hs-CRP Changes from baseline at Week 24, Median” value ([2]; EFV 600 mg) was -0.01 mg/dL and the “hs-CRP Changes from baseline at Week 48, Mean” value ([2]; EFV 600 mg) was -0.71 mg/dL. The “hs-CRP Changes from baseline at Week 48, Median” value ([2]; EFV 600 mg) was -0.03 mg/dL, the “sCD14 Changes from baseline Week 32, Mean” value ([2]; EFV 600 mg, original values) was 480000 pg/mL and the “sCD14 Changes from baseline Week 32, Median” value ([2]; EFV 600 mg, original values) was 170000 pg/mL. The “sCD14 Changes from baseline at Week 12, Mean” value ([2]; EFV 600 mg, original values) was 90000 pg/mL, the “sCD14 Changes from baseline at Week 12, Median” value ([2]; EFV 600 mg, original values) was 1.8e+07 pg/mL and the “sCD14 Changes from baseline at Week 24, Mean” value ([2]; EFV 600 mg, original values) was 230000 pg/mL. The “sCD14 Changes from baseline at Week 24, Median” value ([2]; EFV 600 mg, original values) was 130000 pg/mL, the “sCD14 Changes from baseline at Week 48, Mean” value ([2]; EFV 600 mg, original values) was 640000 pg/mL and the “sCD14 Changes from baseline at Week 48, Median” value ([2]; EFV 600 mg, original values) was 460000 pg/mL. The “sCD14 over 48 weeks of treatment (linear mixed-model analysis of repeat sCD14 analysis)” value ([2]; both CVC treatment arms, EFV arm) was “increase”.
With `CCc1ccc(CCOc2ccc(CC3SC(=O)NC3=O)cc2)nc1` (centres unmarked) [PGZ, Pioglitazone, reference compound] the Cmin on co-administration [3] was “remained unchanged” and the “steady-state Cmax and AUC0-tau on co-administration” value [3] was “modest decrease”.
In the case of `CCCCOCCOc1ccc(-c2ccc3c(c2)C=C(C(=O)Nc2ccc([S@@+]([O-])Cc4cncn4CCC)cc2)CCCN3CC(C)C)cc1` [cenicriviroc mesylate, (S)-8-[4-(2-Butoxyethoxy)phenyl]-1-isobutyl-N-(4-{[(1-propyl-1H-imidazol-5-yl)methyl]sulfinyl}phenyl)-1,2,3,4-tetrahydro-1-benzazocine-5-carboxamide monomethanesulfonoate], the solubility ([4]; 99.5% ethanol) is reported as “sparingly soluble”, the solubility ([4]; acetonitrile, 1-octanol, tetrahydrofuran) is reported as “slightly soluble” and the solubility ([4]; aqueous solution at pH 3) is reported as “sparingly soluble”. The solubility ([4]; aqueous solution from pH 1 to 2) was “freely soluble”, the solubility ([4]; ethyl acetate and diethylether) was “practically insoluble” and the solubility ([4]; glacial acetic acid, methanol, benzyl alcohol, dimethylsulfoxide, N,N-dimethylformamide) was “freely soluble”. For the same molecule, the solubility ([4]; pH 4 to 13 and in water) was “practically insoluble” and the solubility ([4]; pyridine and acetic anhydride) was “soluble”.
